The RepoRT retention time repository

Assay: RP, Waters ACQUITY UPLC BEH C18, 150 × 2.1 mm, 1.7 µm, 40 °C, 0.4 mL/min, estimated dead time 0.83 min; A: water + 0.1% formic acid, pH 3; B: acetonitrile; gradient (min/%B) 0/2 1.5/8 3.5/14 6/16 8/25 9.2/98 10.5/2 12/2
Settings: stereoisomer not certain

| SMILES | LC retention time [min] |
| --- | --- |
| COc1cc(-c2cc(=O)c3c(O)cc(OC4OC(COC(=O)C=Cc5ccc(O)cc5)C(O)C(O)C4O)cc3o2)ccc1O (stereo not drawn) [chrysoeriol 7-O-[6''-coumaroyl]-glucoside] | 10.6 |
| COc1cc(-c2cc(=O)c3c(O)cc(OC4OC(COC5OC(CO)C(O)C(O)C5O)C(O)C(O)C4O)cc3o2)ccc1O (stereo not drawn) [chrysoeriol 7-O-diglucoside] | 8.42 |
| NC(N)=NCCCCNC(=O)C=Cc1ccc2c(c1)C(C(=O)NCCCCN=C(N)N)C(c1ccc(O)cc1)O2 (stereo not drawn) [hordatine A] | 4.52 |
| COc1cc(C=CC(=O)NCCCCN=C(N)N)cc2c1OC(c1ccc(O)cc1)C2C(=O)NCCCCN=C(N)N (stereo not drawn) [hordatine B] | 4.42 |
| COc1cc(C=CC(=O)OCC2OC(Oc3cc4oc(-c5ccc(O)c(O)c5)cc(=O)c4c(O)c3C3OC(CO)C(O)C(O)C3O)C(O)C(O)C2O)ccc1O (stereo not drawn) [isoorientin 7-O-[6''-feruloyl]-glucoside] | 6.23 |
| CC1OC(OC2C(Oc3cc4oc(-c5ccc(O)c(O)c5)cc(=O)c4c(O)c3C3OC(CO)C(O)C(O)C3O)OC(CO)C(O)C2O)C(O)C(O)C1O (stereo not drawn) [isoorientin 7-O-rhamnosylglucoside] | 4.69 |
| COc1cc(-c2cc(=O)c3c(O)c(C4OC(CO)C(O)C(O)C4O)c(OC4OC(COC(=O)C=Cc5cc(OC)c(O)c(OC)c5)C(O)C(O)C4O)cc3o2)ccc1O (stereo not drawn) [isoscoparin 7-O-[6''-sinapoyl]-glucoside] | 7.62 |
| O=c1cc(-c2ccc(O)cc2)oc2c(C3OC(CO)C(O)C(O)C3O)c(O)c(C3OC(CO)C(O)C(O)C3O)c(O)c12 (stereo not drawn) [isovitexin 8-C-glucoside] | 5.25 |
| COc1cc(-c2cc(=O)c3c(O)c(C4OC(CO)C(O)C(O)C4OC4OCC(OC(=O)C=Cc5cc(OC)c(O)c(OC)c5)C(O)C4O)c(O)cc3o2)ccc1O (stereo not drawn) [sinapoyl-isoscoparin 2''-O-arabinoside] | 9.65 |
| COc1cc(C=CC(=O)OCC2OC(Oc3cc(O)c4c(=O)cc(-c5cc(OC)c(O)c(OC)c5)oc4c3)C(O)C(O)C2O)cc(OC)c1O (stereo not drawn) [sinapoyl-tricin 7-O-glucoside] | 4.56 |

More lines, now with the values ahead:

| LC retention time [min] | SMILES |
| --- | --- |
| 4.93 | O=c1cc(-c2ccc(O)cc2)oc2c(C3OCC(O)C(O)C3O)c(O)c(C3OC(CO)C(O)C(O)C3O)c(O)c12 (stereo not drawn) [apigenin 6-C-glucoside-8-C-arabinoside] |
| 7.88 | COc1cc(C=CC(=O)OCC2OC(OC3C(c4c(O)cc5oc(-c6ccc(O)cc6)cc(=O)c5c4O)OC(CO)C(O)C3O)C(O)C(O)C2O)ccc1O (stereo not drawn) [feruloyl-isovitexin 2''-O-glucoside] |
| 6.97 | COc1cc(-c2cc(=O)c3c(O)c(C4OC(CO)C(O)C(O)C4OC4OCC(O)C(O)C4O)c(O)cc3o2)ccc1O (stereo not drawn) [isoscoparin 2''-O-arabinoside] |
| 5.62 | O=c1cc(-c2ccc(O)cc2)oc2cc(O)c(C3OC(CO)C(O)C(O)C3OC3OCC(O)C(O)C3O)c(O)c12 (stereo not drawn) [isovitexin 2''-O-arabinoside] |
| 4.61 | O=c1cc(-c2ccc(O)cc2)oc2cc(OC3OC(CO)C(O)C(O)C3O)c(C3OC(CO)C(O)C(O)C3O)c(O)c12 (stereo not drawn) [isovitexin 7-O-glucoside (saponarin)] |
| 4.81 | CC1OC(OC2C(Oc3cc4oc(-c5ccc(O)cc5)cc(=O)c4c(O)c3C3OC(CO)C(O)C(O)C3O)OC(CO)C(O)C2O)C(O)C(O)C1O (stereo not drawn) [isovitexin 7-O-rhamnosylglucoside] |
| 4.87 | O=c1cc(-c2ccc(O)c(O)c2)oc2c(C3OC(CO)C(O)C(O)C3O)c(O)c(C3OCC(O)C(O)C3O)c(O)c12 (stereo not drawn) [luteolin 6-C-arabinoside 8-C-glucoside] |
| 9.32 | COc1cc(C=CC(=O)OC2COC(OC3C(c4c(O)cc5oc(-c6ccc(O)cc6)cc(=O)c5c4O)OC(CO)C(O)C3O)C(O)C2O)cc(OC)c1O (stereo not drawn) [sinapoyl-isovitexin 2''-O-arabinoside] |
